Measurements from patent US12459951B2, “Compounds that interact with RAS superfamily proteins for treatment of cancers, inflammatory diseases, rasopathies, and fibrotic disease” (SHY Therapeutics, LLC, priority 2022, dated 2025).

Assays:
[1] = tested on: JNK phosphorylation; assay: JNK Activation Assay (western blot), Panc-1; type: cell-based, human; settings: at 10 μM, Panc-1 pancreatic cancer cell line; starred symbols = activation
Experimental: Protocol for JNK Activation Assay
This assay is referred to as the “JNK Activation Assay” throughout this application.
(§1) Cell lines: Human tumor-derived pancreatic cancer cell line Panc-1 (expressing KRas G12C mutant) was purchased from American Type Culture Collection and grown in complete DMEM-High Glucose medium, supplemented with penicillin (100 U/mL), streptomycin (100 μg/mL), and 10% heat-inactivated FBS at 37° C. in a humidified incubator with 5% CO2.
(§2) Method 1: Cells were plated at 350000 cells/well density in a 12-well plate, allowed 3 hours to adhere to the plate, then starved in the appropriate medium in the presence of 0.5% FBS overnight. The small molecules to be tested were added to the cells in the final concentration of 10 μM in the presence of 0.3% DMSO for 6 hours incubation at 37° C. For IC50 value determination, serial dilutions of compounds were added to cells under the same conditions. Next, cells were stimulated with 1.5 ng/ml EGF for 15 minutes then cells were lysed with lysis buffer containing 1% Triton X-100, EDTA, and Halt™ Protease & Phosphatase Inhibitor Cocktail (Thermo Scientific). Protein concentration was assessed by BCA protein assay (Thermo Scientific). Phosphorylation level of JNK was determined by western blot.
(§3) Method 2: Cells were plated at 350000 cells/well density in a 12-well plate in the presence of 10% FBS. The next day small molecules to be tested were added to the cells in the final concentration of 10 μM in the presence of 0.3% DMSO for 6 hours incubation at 37° C. For IC50 value determination, serial dilutions of compounds were added to cells under the same conditions. Next, cells were lysed with lysis buffer containing 1% Triton X-100, EDTA, and Halt™ Protease & Phosphatase Inhibitor Cocktail (Thermo Scientific). Protein concentration was assessed by BCA protein assay (Thermo Scientific). Phosphorylation level of JNK was determined by western blot.
(§4) Western blot protocol: Equal amounts of protein (15-50 μg) were separated by SDS-PAGE and transferred to nitrocellulose membranes (Invitrogen by Thermo Fisher Scientific). The membrane was stained with Ponceau S Stain (Boston BioProducts) to verify uniform protein loading. Membranes were blocked with 10% milk and phosphorylation levels of JNK were assessed by incubating overnight at 4° C. with the antibody Phospho-SAPK/JNK (Thr183/Tyr185), from Cell Signaling Technology. Then the membranes were incubated with HRP-conjugated secondary antibody (Jackson Immunoresearch, West Grove, PA). Bands were incubated in Amersham ECL Prime Western Blotting Detection Reagent (GE Healthcare) and visualized using the ChemiDoc MP imaging system (Bio-Rad).

[2] = tested on: MAPK p38 phosphorylation; assay: MAPK p38 Activation Assay (western blot), Panc-1; type: cell-based, human; settings: at 10 μM, Panc-1 pancreatic cancer cell line; starred symbols = activation
Experimental: Protocol for MAPK p38 Activation Assay
This assay is referred to as the “MAPK p38 Activation Assay” throughout this application.
as §1, with “G12D” for “G12C”
as §2, with “MAPK p38” for “JNK”
as §3, with “plate in 10% FBS.” for “plate in the presence of 10% FBS.”, “level of MAPK p38 was determined” for “level of JNK was determined”
as §4, with “MAPK p38” for “JNK”, “following antibody: Phospho-p38 MAPK (Thr180/Tyr182),” for “antibody Phospho-SAPK/JNK (Thr183/Tyr185),”

Row | Compound | % inh of JNK in Panc-1 [1] | % inh of MAPK p38 in Panc-1 [2]
1 | CO[C@H]1CC[C@@H](Nc2nc(-c3ccccn3)nn3cc(-c4ccn(C(C)C)n4)c(C)c23)C1 (racemic) [Compound 9, rac 6-(1-Isopropyl-1H-pyrazol-3-yl)-N-((1R,3S)-3-methoxycyclopentyl)-5-methyl-2-(pyridin-2-yl)pyrrolo[2,1-f][1,2,4]triazin-4-amine] | F* (F* = 31-74% activation) | G* (G* = 75-99% activation)
2 | COc1cc(Nc2nc(-c3nccn3C)nn3cc(-c4ccn(C(C)C)n4)c(C)c23)ncn1 [Compound 6, 6-(1-Isopropyl-1H-pyrazol-3-yl)-N-(6-methoxypyrimidin-4-yl)-5-methyl-2-(1-methyl-1H-imidazol-2-yl)pyrrolo[2,1-f][1,2,4]triazin-4-amine] | H* (H* ≥ 100% activation) | E* (E* = 1-30% activation)
3 | Cc1c(-c2ccn(C(C)C)n2)cn2nc(-c3ccccn3)nc(O)c12 [Compound 8, 6-(1-Isopropyl-1H-pyrazol-3-yl)-5-methyl-2-(pyridin-2-yl)pyrrolo[2,1-f][1,2,4]triazin-4-ol] | E* (E* = 1-30% activation) | H* (H* ≥ 100% activation)
4 | Cc1c(-c2ccn(C(C)C)n2)cn2nc(-c3nccn3C)nc(Nc3nccn3C)c12 [Compound 93, 6-(1-Isopropyl-1H-pyrazol-3-yl)-5-methyl-N,2-bis(1-methyl-1H-imidazol-2-yl)pyrrolo[2,1-f][1,2,4]triazin-4-amine] | H* (H* ≥ 100% activation) | H* (H* ≥ 100% activation)
